# Laboratory results taken from PubChem BioAssay AID2060488 (Molecular Pharmacology Branch, DTP, NCI, 2025).
# Test system: 966289-007-R4-J1-PDC complex spheroid viability
# Experiment: Anticancer human tumor 966289-007-R4-J1-PDC patient-derived pancreatic adenocarcinoma cell line growth inhibition [GQUAD]
# Settings: for IC50: curve of first compound; for viability, T/C: stronger effect = lower value
# From the text: DNA G-quadruplex Stabilizer Agents in Combinations in Complex Spheroids
# A high-throughput screen of multi-cell type tumor spheroids was designed to identify active combinations of DNA G-quadruplex stabilizer agents and targeted small molecules. Complex spheroids include a stromal component modeled by human endothelial cells (HUVEC) and fibroblasts modeled by human mesenchymal stem cells (MSCs). The concentration ranges selected for each drug and investigational agent were based upon clinically achievable concentrations if the clinical Cmax of the agent was known.
# Compounds. The drugs and investigational agents: pidnarulex (CX-5461; NSC782164), APTO-253 (NSC789042), BRACO-19 (NSC847499), peposertib (NSC802822), ceralasertib (NSC780249), elimusertib (NSC800525), camonsertib (NSC841442), AZD-1390 (NSC803789), olaparib (NSC753686), talazoparib (NSC767125), ART-558 (NSC835418), sotorasib (NSC818433), MRTX-1133 (NSC836407), SN-38 (NSC673596), topotecan (NSC609699), etoposide (NSC141540), doxorubicin (NSC123127), gemcitabine (NSC613327), 5-fluorouracil (NSC19893), paclitaxel (NSC125973), vemurafenib (NSC761431), panobinostat (NSC761190), R-306465 (JNJ-16241199; NSC773264), adavosertib (NSC754352), TP-3654 (NSC805149), carboplatin (NSC241240), KSQ-4279 (NSC840948), and staurosporine (NSC755774) were obtained from the National Cancer Institute (NCI) Developmental Therapeutics Program Chemical Repository (34). The FDA-approved anticancer drug set is available from the NCI Developmental Therapeutics Program. […] The stock solutions were prepared in dimethyl sulfoxide (DMSO, Sigma-Aldrich, St. Louis, MO, cat. D2650) at 800-fold the tested concentration and stored at -70 degrees C prior to their use. All drugs and investigational agents were tested over a range starting from a high concentration at or near the clinical Cmax and decreasing in half-log increments. If the clinical Cmax for an agent had not been determined, the highest concentration tested was 10 microM.
# 2.3 Cell Culture. All cells were maintained in an incubator at 37 degrees C and 5% CO2 with 95% humidity. The PDC lines were cultured according to standard operating procedures established by the NCI PDMR. All PDCs were thawed and cultured in Matrigel-coated flasks prepared with a working solution of 1X Ham's F-12 nutrient mix, without supplementation (Invitrogen, cat. 11765054), 100 U/mL penicillin-streptomycin (Invitrogen, cat. 15140122), and 2.5% Matrigel (Corning Inc., cat. 354248) for the first three passages. The 857933-349-R-J2-PDC line was cultured in 6C/Colon 1B media, which includes advanced DMEM/F-12 (Thermo Fisher Scientific, cat. 12634028), 10 mM HEPES (Thermo Fisher Scientific, cat. 15630080), 1X GlutaMAX supplement (Thermo Fisher Scientific, cat. 35050061), 0.1 mg/mL primocin (InvivoGen, cat. ant-pm-2), 10% defined fetal bovine serum, heat inactivated (HyClone Laboratories Inc., cat. SH30070.03HI), 50% L-WRN conditioned media (ATCC, cat. CRL-3276), 1.25 mM N-Acetyl-L-cysteine (Sigma-Aldrich, cat. A9165), 10 mM nicotinamide (Sigma-Aldrich, cat. N0636), 1X B-27 supplement (Thermo Fisher Scientific, cat. 17504044), 1X N-2 supplement (Thermo Fisher Scientific, cat. 17502048), 10 microM Y-27632 dihydrochloride (Tocris Bioscience, cat. 1254), and 50 ng/mL human EGF recombinant protein (Thermo Fisher Scientific, cat. PHG0311). The 485176-168-R4-J1-PDC line was cultured in Panc media, which includes all 6C/Colon 1B media components plus 100 ng/mL human FGF-10 (Thermo Fisher Scientific, cat. 100-26), 500 nM SB-431542 (Selleckchem, cat. S1067), and gastrin (Tocris, cat. 3006).
# […]
# [1] = second compound 0.0316 µM, first compound 0.0316 µM
# [2] = second compound 0.0316 µM, first compound 0.1 µM
# [3] = second compound 0.0316 µM, first compound 0.316 µM
# [4] = second compound 0.0316 µM, first compound 1 µM
# [5] = second compound 0.0316 µM, first compound 3.16 µM
# [6] = second compound 0.0316 µM, first compound 10 µM
# [7] = second compound 0.1 µM, first compound 0.0316 µM
# [8] = second compound 0.1 µM, first compound 0.1 µM
# [9] = second compound 0.1 µM, first compound 0.316 µM
# [10] = second compound 0.1 µM, first compound 1 µM
# [11] = second compound 0.1 µM, first compound 3.16 µM
# [12] = second compound 0.1 µM, first compound 10 µM
# [13] = second compound 0.316 µM, first compound 0.0316 µM
# [14] = second compound 0.316 µM, first compound 0.1 µM
# [15] = second compound 0.316 µM, first compound 0.316 µM
# [16] = second compound 0.316 µM, first compound 1 µM
# [17] = second compound 0.316 µM, first compound 3.16 µM
# [18] = second compound 0.316 µM, first compound 10 µM
# [19] = second compound 1 µM, first compound 0.0316 µM
# [20] = second compound 1 µM, first compound 0.1 µM
# [21] = second compound 1 µM, first compound 0.316 µM
# [22] = second compound 1 µM, first compound 1 µM
# [23] = second compound 1 µM, first compound 3.16 µM
# [24] = second compound 1 µM, first compound 10 µM
# [25] = second compound 3.16 µM, first compound 0.0316 µM
# [26] = second compound 3.16 µM, first compound 0.1 µM
# [27] = second compound 3.16 µM, first compound 0.316 µM
# [28] = second compound 3.16 µM, first compound 1 µM
# [29] = second compound 3.16 µM, first compound 3.16 µM
# [30] = second compound 3.16 µM, first compound 10 µM
# [31] = second compound 10 µM, first compound 0.0316 µM
# [32] = second compound 10 µM, first compound 0.1 µM
# [33] = second compound 10 µM, first compound 0.316 µM
# [34] = second compound 10 µM, first compound 1 µM
# [35] = second compound 10 µM, first compound 3.16 µM
# [36] = second compound 10 µM, first compound 10 µM
# 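Note: spheroids exposed to the agents for seven days before readout.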
# 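Throughout, for viability, T/C: percent viability relative to DMSO vehicle control wells taken as 100%.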
compound,measurement,setting,value
C#Cc1c(F)ccc2cc(O)cc(-c3ncc4c(N5CC6CCC(C5)N6)nc(OCC56CCCN5CC(F)C6)nc4c3F)c12 (centres undefined) + CN(C)c1ccc(Nc2c3ccc(NC(=O)CCN4CCCC4)cc3nc3cc(NC(=O)CCN4CCCC4)ccc23)cc1,IC50,second compound 0.0316 µM,> 10 µM
same,IC50,second compound 0.1 µM,> 10 µM
same,IC50,second compound 0.316 µM,> 10 µM
same,IC50,second compound 1 µM,> 10 µM
same,IC50,second compound 3.16 µM,> 10 µM
same,IC50,second compound 10 µM,1.79 µM
same,"viability, T/C",[1],103%
same,"viability, T/C",[2],88.4%
same,"viability, T/C",[3],98.5%
same,"viability, T/C",[4],86.7%
same,"viability, T/C",[5],95.9%
same,"viability, T/C",[6],93.5%
same,"viability, T/C",[7],96.8%
same,"viability, T/C",[8],84.4%
same,"viability, T/C",[9],94.5%
same,"viability, T/C",[10],89%
same,"viability, T/C",[11],90.7%
same,"viability, T/C",[12],96%
same,"viability, T/C",[13],98.2%
same,"viability, T/C",[14],91.2%
same,"viability, T/C",[15],105%
same,"viability, T/C",[16],96.3%
same,"viability, T/C",[17],95.2%
same,"viability, T/C",[18],103%
same,"viability, T/C",[19],87.9%
same,"viability, T/C",[20],89.9%
same,"viability, T/C",[21],98.8%
same,"viability, T/C",[22],96.8%
same,"viability, T/C",[23],95.5%
same,"viability, T/C",[24],102%
same,"viability, T/C",[25],88.5%
same,"viability, T/C",[26],91.1%
same,"viability, T/C",[27],96.8%
same,"viability, T/C",[28],99.4%
same,"viability, T/C",[29],104%
same,"viability, T/C",[30],68.7%
same,"viability, T/C",[31],104%
same,"viability, T/C",[32],106%
same,"viability, T/C",[33],103%
same,"viability, T/C",[34],85%
same,"viability, T/C",[35],16.1%
same,"viability, T/C",[36],0.99%
C=CC(=O)N1CCN(c2nc(=O)n(-c3c(C)ccnc3C(C)C)c3nc(-c4c(O)cccc4F)c(F)cc23)C(C)C1 (centres undefined) + CN(C)c1ccc(Nc2c3ccc(NC(=O)CCN4CCCC4)cc3nc3cc(NC(=O)CCN4CCCC4)ccc23)cc1,IC50,second compound 0.0316 µM,> 10 µM
same,IC50,second compound 0.1 µM,> 10 µM
same,IC50,second compound 0.316 µM,> 10 µM
same,IC50,second compound 1 µM,> 10 µM
same,IC50,second compound 3.16 µM,> 10 µM
same,IC50,second compound 10 µM,6.78 µM
same,"viability, T/C",[1],107%
same,"viability, T/C",[2],99.6%
same,"viability, T/C",[3],106%
same,"viability, T/C",[4],100%
same,"viability, T/C",[5],106%
same,"viability, T/C",[6],110%
same,"viability, T/C",[7],101%
same,"viability, T/C",[8],105%
same,"viability, T/C",[9],105%
same,"viability, T/C",[10],104%
same,"viability, T/C",[11],102%
same,"viability, T/C",[12],113%
same,"viability, T/C",[13],96%
same,"viability, T/C",[14],104%
same,"viability, T/C",[15],106%
same,"viability, T/C",[16],102%
same,"viability, T/C",[17],97.1%
same,"viability, T/C",[18],111%
same,"viability, T/C",[19],94.3%
same,"viability, T/C",[20],99.8%
same,"viability, T/C",[21],102%
same,"viability, T/C",[22],94.8%
same,"viability, T/C",[23],108%
same,"viability, T/C",[24],108%
same,"viability, T/C",[25],99.6%
same,"viability, T/C",[26],101%
same,"viability, T/C",[27],107%
same,"viability, T/C",[28],105%
same,"viability, T/C",[29],106%
same,"viability, T/C",[30],111%
same,"viability, T/C",[31],105%
same,"viability, T/C",[32],101%
same,"viability, T/C",[33],108%
same,"viability, T/C",[34],105%
same,"viability, T/C",[35],106%
same,"viability, T/C",[36],21.7%
